How the values were obtained:
[1] = target: Megakaryocyte-associated tyrosine-protein kinase (Homo sapiens) (UniProt P42679); conditions: Compound concentration 1000.0 nM
[2] = target: Mitogen-activated protein kinase 11 (Homo sapiens) (UniProt Q15759); conditions: Compound concentration 1000.0 nM
[3] = target: Ribosomal protein S6 kinase alpha-2 (Homo sapiens) (UniProt Q15349); conditions: Compound concentration 1000.0 nM
[4] = tested on: Receptor-type tyrosine-protein kinase FLT3 (Homo sapiens), P36888 [N841I]; conditions: Compound concentration 1000.0 nM
[5] = target: Phosphatidylinositol 3-kinase catalytic subunit type 3 (Homo sapiens) (UniProt Q8NEB9); conditions: Compound concentration 1000.0 nM
[6] = tested on: Phosphatidylinositol 4,5-bisphosphate 3-kinase catalytic subunit alpha isoform (Homo sapiens), P42336 [E542K]; conditions: Compound concentration 1000.0 nM
[7] = target: Mitogen-activated protein kinase kinase kinase kinase 2 (Homo sapiens) (UniProt Q12851); conditions: Compound concentration 1000.0 nM
[8] = target: Tyrosine-protein kinase Yes (Homo sapiens) (UniProt P07947); conditions: Compound concentration 1000.0 nM
[9] = target: Mu-type opioid receptor (Homo sapiens) (UniProt P35372); conditions: Compound concentration 10.0 uM
[10] = target: 1-phosphatidylinositol 3-phosphate 5-kinase (Homo sapiens) (UniProt Q9Y2I7); conditions: Compound concentration 1000.0 nM
[11] = target: Phosphatidylinositol 4-kinase beta (Homo sapiens) (UniProt Q9UBF8); conditions: Compound concentration 1000.0 nM
[12] = target: Phosphorylase b kinase gamma catalytic chain, skeletal muscle/heart isoform (Homo sapiens) (UniProt Q16816); conditions: Compound concentration 1000.0 nM
[13] = target: Serine/threonine-protein kinase PknB (Mycobacterium tuberculosis) (UniProt P9WI81); conditions: Compound concentration 1000.0 nM
[14] = target: NUAK family SNF1-like kinase 2 (Homo sapiens) (UniProt Q9H093); conditions: Compound concentration 1000.0 nM
[15] = target: Serine/threonine-protein kinase NLK (Homo sapiens) (UniProt Q9UBE8); conditions: Compound concentration 1000.0 nM
[16] = target: Serine/threonine-protein kinase TAO1 (Homo sapiens) (UniProt Q7L7X3); conditions: Compound concentration 1000.0 nM
[17] = target: Serine/threonine-protein kinase Nek6 (Homo sapiens) (UniProt Q9HC98); conditions: Compound concentration 1000.0 nM
[18] = target: Bone morphogenetic protein receptor type-1A (Homo sapiens) (UniProt P36894); conditions: Compound concentration 1000.0 nM
[19] = target: Tyrosine-protein kinase JAK1 (Homo sapiens) (UniProt P23458); conditions: Compound concentration 1000.0 nM
[20] = tested on: Epidermal growth factor receptor (Homo sapiens), P00533 [UNDEFINED MUTATION]; conditions: Compound concentration 1000.0 nM
[21] = target: T1, 5-hydroxytryptamine receptor 2C (Homo sapiens) (UniProt P28335); conditions: Compound concentration 10.0 uM
T1 sequence (whole entry): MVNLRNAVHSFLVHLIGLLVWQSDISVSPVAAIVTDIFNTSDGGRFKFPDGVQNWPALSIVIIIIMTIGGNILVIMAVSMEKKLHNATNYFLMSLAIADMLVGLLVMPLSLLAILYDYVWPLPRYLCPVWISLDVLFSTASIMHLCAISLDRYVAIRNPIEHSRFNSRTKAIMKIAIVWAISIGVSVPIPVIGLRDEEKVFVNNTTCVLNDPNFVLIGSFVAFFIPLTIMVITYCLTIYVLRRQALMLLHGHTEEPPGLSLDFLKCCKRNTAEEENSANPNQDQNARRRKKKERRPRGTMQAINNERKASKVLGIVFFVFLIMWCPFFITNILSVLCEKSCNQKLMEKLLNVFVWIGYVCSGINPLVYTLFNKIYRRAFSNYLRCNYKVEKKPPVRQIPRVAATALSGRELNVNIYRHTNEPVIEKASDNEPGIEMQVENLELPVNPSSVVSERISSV

[22] = target: Receptor tyrosine-protein kinase erbB-2 (Homo sapiens) (UniProt P04626); conditions: Compound concentration 1000.0 nM
[23] = target: Dual specificity testis-specific protein kinase 1 (Homo sapiens) (UniProt Q15569); conditions: Compound concentration 1000.0 nM
[24] = target: Serine/threonine-protein kinase STK11 (Homo sapiens) (UniProt Q15831); conditions: Compound concentration 1000.0 nM
[25] = tested on: Leucine-rich repeat serine/threonine-protein kinase 2 (Homo sapiens), Q5S007 [G2019S]; conditions: Compound concentration 1000.0 nM
[26] = tested on: Tyrosine-protein kinase ABL1 (Homo sapiens), P00519 [M351T]; conditions: Compound concentration 1000.0 nM
[27] = target: Tyrosine-protein kinase HCK (Homo sapiens) (UniProt P08631); conditions: Compound concentration 1000.0 nM
[28] = target: Serine/threonine-protein kinase Nek3 (Homo sapiens) (UniProt P51956); conditions: Compound concentration 1000.0 nM
[29] = target: Serine/threonine-protein kinase SIK3 (Homo sapiens) (UniProt Q9Y2K2); conditions: Compound concentration 1000.0 nM
[30] = target: cGMP-dependent protein kinase 2 (Homo sapiens) (UniProt Q13237); conditions: Compound concentration 1000.0 nM
[31] = target: Epithelial discoidin domain-containing receptor 1 (Homo sapiens) (UniProt Q08345); conditions: Compound concentration 1000.0 nM
[32] = target: Histamine H1 receptor (Homo sapiens) (UniProt P35367); conditions: Compound concentration 10.0 uM
[33] = tested on: Tyrosine-protein kinase ABL1 (Homo sapiens), P00519 [T315I]; conditions: Compound concentration 1000.0 nM
[34] = target: Casein kinase I isoform gamma-1 (Homo sapiens) (UniProt Q9HCP0); conditions: Compound concentration 1000.0 nM

Chain of NUAK family SNF1-like kinase 2 (Homo sapiens) (Q9H093 whole entry): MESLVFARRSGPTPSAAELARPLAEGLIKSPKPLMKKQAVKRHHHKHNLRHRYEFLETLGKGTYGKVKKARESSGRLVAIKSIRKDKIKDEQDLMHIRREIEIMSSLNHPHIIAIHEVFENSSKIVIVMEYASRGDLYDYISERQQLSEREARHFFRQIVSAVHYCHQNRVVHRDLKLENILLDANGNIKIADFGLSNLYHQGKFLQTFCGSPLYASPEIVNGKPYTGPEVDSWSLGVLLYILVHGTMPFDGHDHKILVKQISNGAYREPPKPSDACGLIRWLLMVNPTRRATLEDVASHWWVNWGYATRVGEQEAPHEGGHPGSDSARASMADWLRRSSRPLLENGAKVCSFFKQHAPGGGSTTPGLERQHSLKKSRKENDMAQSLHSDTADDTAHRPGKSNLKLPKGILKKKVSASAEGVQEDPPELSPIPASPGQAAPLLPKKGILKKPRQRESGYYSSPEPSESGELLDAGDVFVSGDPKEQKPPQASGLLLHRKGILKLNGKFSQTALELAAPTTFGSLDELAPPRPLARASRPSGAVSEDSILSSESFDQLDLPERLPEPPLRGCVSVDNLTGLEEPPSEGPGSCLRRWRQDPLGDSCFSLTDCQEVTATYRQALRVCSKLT
Chain of cGMP-dependent protein kinase 2 (Homo sapiens) (Q13237 whole entry, the tested form may be a part): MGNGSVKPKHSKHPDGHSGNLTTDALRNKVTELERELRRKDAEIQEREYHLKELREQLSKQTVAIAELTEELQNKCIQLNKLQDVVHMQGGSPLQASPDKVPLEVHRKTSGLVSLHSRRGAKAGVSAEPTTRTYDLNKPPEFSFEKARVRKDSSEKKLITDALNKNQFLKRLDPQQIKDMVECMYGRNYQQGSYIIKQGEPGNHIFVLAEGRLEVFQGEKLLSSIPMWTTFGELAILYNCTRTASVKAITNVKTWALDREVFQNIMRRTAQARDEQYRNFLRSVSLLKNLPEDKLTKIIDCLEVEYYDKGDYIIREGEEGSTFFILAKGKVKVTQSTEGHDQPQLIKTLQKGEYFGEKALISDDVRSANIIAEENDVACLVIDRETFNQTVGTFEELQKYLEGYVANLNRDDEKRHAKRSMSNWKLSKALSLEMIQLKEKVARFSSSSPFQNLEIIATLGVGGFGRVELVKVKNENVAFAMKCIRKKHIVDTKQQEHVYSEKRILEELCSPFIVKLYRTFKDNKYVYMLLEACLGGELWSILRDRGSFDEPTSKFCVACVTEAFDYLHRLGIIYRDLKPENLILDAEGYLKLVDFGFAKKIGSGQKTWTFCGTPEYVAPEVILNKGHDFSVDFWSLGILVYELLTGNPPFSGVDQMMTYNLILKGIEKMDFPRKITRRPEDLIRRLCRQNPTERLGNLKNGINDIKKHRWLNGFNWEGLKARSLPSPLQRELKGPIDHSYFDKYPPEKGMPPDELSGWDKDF
Chain of Serine/threonine-protein kinase STK11 (Homo sapiens) (Q15831 whole entry): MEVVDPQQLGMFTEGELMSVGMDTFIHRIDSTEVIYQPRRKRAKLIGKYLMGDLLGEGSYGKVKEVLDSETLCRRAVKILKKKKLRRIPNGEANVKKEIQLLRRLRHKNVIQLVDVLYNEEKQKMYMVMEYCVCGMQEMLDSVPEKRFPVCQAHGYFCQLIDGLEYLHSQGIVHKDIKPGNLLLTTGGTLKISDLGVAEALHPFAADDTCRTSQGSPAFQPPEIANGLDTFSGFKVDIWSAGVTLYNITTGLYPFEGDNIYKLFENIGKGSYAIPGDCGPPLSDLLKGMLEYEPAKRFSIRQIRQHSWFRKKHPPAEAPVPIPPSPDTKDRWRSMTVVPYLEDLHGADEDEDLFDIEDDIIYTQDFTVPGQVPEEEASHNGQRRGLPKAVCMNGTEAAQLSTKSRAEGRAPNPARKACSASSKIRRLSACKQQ
Chain of Tyrosine-protein kinase Yes (Homo sapiens) (P07947 2-543 limits assumed): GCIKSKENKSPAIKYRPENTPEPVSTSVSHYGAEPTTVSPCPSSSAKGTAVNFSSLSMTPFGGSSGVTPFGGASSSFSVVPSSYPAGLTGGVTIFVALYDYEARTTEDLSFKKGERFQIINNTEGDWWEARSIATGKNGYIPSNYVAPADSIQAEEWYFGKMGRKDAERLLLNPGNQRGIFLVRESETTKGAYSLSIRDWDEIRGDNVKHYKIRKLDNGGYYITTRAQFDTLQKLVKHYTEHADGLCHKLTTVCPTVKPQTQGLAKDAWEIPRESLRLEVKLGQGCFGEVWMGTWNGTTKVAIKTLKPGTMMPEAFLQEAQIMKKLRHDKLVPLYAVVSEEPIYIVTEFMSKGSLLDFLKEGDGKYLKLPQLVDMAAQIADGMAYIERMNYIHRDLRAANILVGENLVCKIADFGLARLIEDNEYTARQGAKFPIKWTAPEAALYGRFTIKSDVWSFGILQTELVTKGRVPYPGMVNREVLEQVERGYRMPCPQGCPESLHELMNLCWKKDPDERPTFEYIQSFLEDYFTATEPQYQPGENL
Chain of Mitogen-activated protein kinase 11 (Homo sapiens) (Q15759 whole entry): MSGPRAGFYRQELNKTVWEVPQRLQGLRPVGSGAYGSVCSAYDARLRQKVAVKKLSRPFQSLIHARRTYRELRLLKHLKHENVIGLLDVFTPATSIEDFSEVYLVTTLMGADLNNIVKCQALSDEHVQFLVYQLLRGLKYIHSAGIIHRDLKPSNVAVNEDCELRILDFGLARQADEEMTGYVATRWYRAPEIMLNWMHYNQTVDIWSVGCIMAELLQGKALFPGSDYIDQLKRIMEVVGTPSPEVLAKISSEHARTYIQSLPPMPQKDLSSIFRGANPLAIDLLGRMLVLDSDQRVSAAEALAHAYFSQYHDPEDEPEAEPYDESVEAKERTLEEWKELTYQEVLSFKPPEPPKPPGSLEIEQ
Chain of Megakaryocyte-associated tyrosine-protein kinase (Homo sapiens) (P42679 whole entry): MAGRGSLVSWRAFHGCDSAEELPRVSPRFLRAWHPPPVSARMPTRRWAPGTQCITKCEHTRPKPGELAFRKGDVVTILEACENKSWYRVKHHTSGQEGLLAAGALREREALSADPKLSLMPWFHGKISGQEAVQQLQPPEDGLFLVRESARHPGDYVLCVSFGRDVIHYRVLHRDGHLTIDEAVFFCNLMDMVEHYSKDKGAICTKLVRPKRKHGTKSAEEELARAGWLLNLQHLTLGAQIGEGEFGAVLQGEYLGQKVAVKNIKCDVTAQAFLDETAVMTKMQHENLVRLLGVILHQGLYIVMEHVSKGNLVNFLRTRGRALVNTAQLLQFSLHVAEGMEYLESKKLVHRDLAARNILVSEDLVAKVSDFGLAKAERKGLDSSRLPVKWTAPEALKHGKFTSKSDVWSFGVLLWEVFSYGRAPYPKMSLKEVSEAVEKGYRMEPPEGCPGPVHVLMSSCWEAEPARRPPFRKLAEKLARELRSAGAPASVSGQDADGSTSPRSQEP
Chain of Phosphatidylinositol 3-kinase catalytic subunit type 3 (Homo sapiens) (Q8NEB9 whole entry, canonical isoform): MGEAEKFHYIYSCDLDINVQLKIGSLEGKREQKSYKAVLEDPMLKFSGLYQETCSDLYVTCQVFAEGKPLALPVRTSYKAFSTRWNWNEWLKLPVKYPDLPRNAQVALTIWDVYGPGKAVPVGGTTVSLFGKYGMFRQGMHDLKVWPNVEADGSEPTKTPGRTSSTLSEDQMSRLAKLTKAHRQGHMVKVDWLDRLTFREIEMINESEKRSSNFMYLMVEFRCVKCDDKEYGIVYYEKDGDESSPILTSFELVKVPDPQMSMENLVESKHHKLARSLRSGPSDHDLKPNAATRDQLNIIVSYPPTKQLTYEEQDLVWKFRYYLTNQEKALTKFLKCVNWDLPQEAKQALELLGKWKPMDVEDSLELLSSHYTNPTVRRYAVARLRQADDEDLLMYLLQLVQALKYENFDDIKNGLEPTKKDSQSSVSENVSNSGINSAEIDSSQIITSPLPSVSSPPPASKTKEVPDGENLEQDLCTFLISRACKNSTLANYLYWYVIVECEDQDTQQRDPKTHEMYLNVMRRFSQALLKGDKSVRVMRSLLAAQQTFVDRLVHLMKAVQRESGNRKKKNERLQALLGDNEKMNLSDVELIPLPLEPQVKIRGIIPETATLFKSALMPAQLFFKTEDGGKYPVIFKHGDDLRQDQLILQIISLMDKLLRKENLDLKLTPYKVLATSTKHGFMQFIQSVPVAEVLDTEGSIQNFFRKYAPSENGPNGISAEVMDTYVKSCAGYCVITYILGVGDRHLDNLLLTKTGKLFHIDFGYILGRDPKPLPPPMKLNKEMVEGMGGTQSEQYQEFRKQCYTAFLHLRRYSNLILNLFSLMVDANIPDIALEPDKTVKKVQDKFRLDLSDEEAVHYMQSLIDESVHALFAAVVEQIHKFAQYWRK
Chain of Phosphatidylinositol 4-kinase beta (Homo sapiens) (Q9UBF8 2-816 limits assumed): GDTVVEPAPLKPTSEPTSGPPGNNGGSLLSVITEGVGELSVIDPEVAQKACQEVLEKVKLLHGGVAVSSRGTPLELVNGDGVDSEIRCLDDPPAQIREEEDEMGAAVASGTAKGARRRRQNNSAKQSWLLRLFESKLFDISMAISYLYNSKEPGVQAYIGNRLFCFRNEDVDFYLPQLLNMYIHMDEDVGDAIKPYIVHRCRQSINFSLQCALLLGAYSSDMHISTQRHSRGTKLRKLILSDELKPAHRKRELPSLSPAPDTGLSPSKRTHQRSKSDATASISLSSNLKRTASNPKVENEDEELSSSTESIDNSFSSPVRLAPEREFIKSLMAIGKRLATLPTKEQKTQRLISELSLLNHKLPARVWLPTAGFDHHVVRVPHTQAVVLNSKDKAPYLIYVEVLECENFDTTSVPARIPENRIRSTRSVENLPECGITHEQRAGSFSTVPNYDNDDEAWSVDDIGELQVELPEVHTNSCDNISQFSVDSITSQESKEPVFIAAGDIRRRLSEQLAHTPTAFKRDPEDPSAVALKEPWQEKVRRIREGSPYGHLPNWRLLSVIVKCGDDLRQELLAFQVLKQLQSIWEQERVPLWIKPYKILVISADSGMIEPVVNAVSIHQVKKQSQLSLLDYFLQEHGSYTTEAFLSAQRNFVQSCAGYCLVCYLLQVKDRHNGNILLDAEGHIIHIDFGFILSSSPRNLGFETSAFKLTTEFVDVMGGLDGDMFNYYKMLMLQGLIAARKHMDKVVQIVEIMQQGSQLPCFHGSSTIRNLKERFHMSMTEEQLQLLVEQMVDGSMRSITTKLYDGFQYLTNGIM

N#CC1(c2ccccn2)CCN(Cc2cc(C(=O)N3CCCC3)c(=O)n3ccccc23)CC1
inactive: residual activity [1] 76% | residual activity [2] 76% | residual activity [3] 88% | residual activity [4] 100% | residual activity [5] 89% | residual activity [6] 90% | residual activity [7] 96% | residual activity [8] 84% | inhibition [9] 35% | residual activity [10] 76% | residual activity [11] 100% | residual activity [12] 100% | residual activity [13] 92% | residual activity [14] 100% | residual activity [15] 92% | residual activity [16] 100% | residual activity [17] 100% | residual activity [18] 74% | residual activity [19] 100% | residual activity [20] 81% | inhibition [21] -2.49% | residual activity [22] 95% | residual activity [23] 90% | residual activity [24] 77% | residual activity [25] 100% | residual activity [26] 100% | residual activity [27] 100% | residual activity [28] 83% | residual activity [29] 100% | residual activity [30] 100% | residual activity [31] 85% | inhibition [32] 9.7% | residual activity [33] 83% | residual activity [34] 79%

N#CC1(c2ccccn2)CCN(Cc2cc(C(=O)O)c(=O)n3ccccc23)CC1 [MSD-M1PAM]
inactive: residual activity [1] 84% | residual activity [2] 100% | residual activity [3] 100% | residual activity [4] 97% | residual activity [5] 70% | residual activity [6] 87% | residual activity [7] 81% | residual activity [8] 94% | inhibition [9] 18.5% | residual activity [10] 97% | residual activity [11] 74% | residual activity [12] 100% | residual activity [13] 88% | residual activity [14] 77% | residual activity [15] 100% | residual activity [16] 100% | residual activity [17] 100% | residual activity [18] 97% | residual activity [19] 84% | residual activity [20] 96% | inhibition [21] 10.5% | residual activity [22] 96% | residual activity [23] 100% | residual activity [24] 100% | residual activity [25] 100% | residual activity [26] 57% | residual activity [27] 100% | residual activity [28] 66% | residual activity [29] 97% | residual activity [30] 95% | residual activity [31] 100% | inhibition [32] 28.4% | residual activity [33] 80% | residual activity [34] 100%

Reference: ChEMBL document CHEMBL4507295 (2021)
